The values that follow come from patent US20020193369A1, “Antifungal compounds and uses therefor” (priority 2000, published 2002).

The conditions of data set [1]: cited from earlier work.
Data set [2] has as its system C. albicans strain ATCC 90028. The data set is described as follows: Fold reduction of live cells after 24 hr incubation with combinations of azoles and potentiators. It is filed as cell-based, Candida albicans. As to the method: Eleven structural analogs of INF 801 and fourteen analogs of INF 802 were purchased from ChemBridge, Maybridge and Aldrich and tested for activity. […] The numbers presented in these two tables indicate the -fold reduction in the number of live cells after 24 hour incubation with the combinations of azoles and potentiators. The higher the number, the higher the fungicidal activity of the combination. Note that concentrations of drags are somewhat different in the two tables, so the comparison between the two tables is not meaningful. [table] [table]

For data set [3], the system named is C. albicans. The data set is described as follows: Fungicidal synergy with fluconazole against C. albicans (active concentration of leads and analogs). Format: cell-based, Candida albicans. The note with it: for activity (concentration synergizing with fluconazole to a fungicidal effect): fluconazole 32 μg/ml; for concentration at which fungicidal activity is observed: combined with high concentrations of fluconazole (16 μg/ml and more). The protocol:
In summary, the performed screens of the chemical library identified a number of interesting potentiators of azole activity. Of these potentiators the inventors chose for further development two lead compounds, INF 801 and INF 802. […] Unlike compound INF 799, which is active at very low concentration (2 ng/ml, see above), INF 801 and INF 802 need to be present at relatively high concentrations to be active. When combined with high concentrations of fluconazole (16 μg/ml and more), their fungicidal activity is observed at 1.25 or 2.5 μg/ml, respectively. At concentrations of the azole that are clinically relevant (4 μg/ml), they are active only at ˜5-10 μg/ml.
Eleven structural analogs of INF 801 and fourteen analogs of INF 802 were purchased from ChemBridge, Maybridge and Aldrich and tested for activity. […] The numbers presented in these two tables indicate the -fold reduction in the number of live cells after 24 hour incubation with the combinations of azoles and potentiators. The higher the number, the higher the fungicidal activity of the combination. Note that concentrations of drags are somewhat different in the two tables, so the comparison between the two tables is not meaningful.

Data set [4] has as its system C. albicans isolates (sensitive; isolate #4 over expressing MDR1). In words: microbe, parasite or virus in culture. It is filed as cell-based. The following applies: Candida albicans.
Data set [5] has as its system C. albicans. In words: Paper disk zones of inhibition on YPD agar plates inoculated with C. albicans. It is filed as cell-based, Candida albicans. The note with it: for zone of inhibition, combination with fluconazole: disk with fluconazole 1 mg/ml + compound 2.5 mg/ml.
The subject of data set [6] is C. albicans. The data set is described as follows: Time-kill experiments in liquid culture of C. albicans. It is filed as cell-based, Candida albicans. The following applies: for effect on growth of the yeast, compound alone: 10 μg/ml, no fluconazole; for colonies from plating of a milliliter of culture: combination with fluconazole, culture initially 3000 CFU/ml; for drop in number of live cells after 24 hours, combination with fluconazole / drop in number of live cells after 48 hours, combination with fluconazole: fluconazole 32 μg/ml + compound 10 μg/ml.

The test system of data set [7] is Candida krusei Strain M13C4. In words: MIC of fluconazole for Candida krusei with lead compounds. It is filed as cell-based. The note with it: for MIC of fluconazole: Fluconazole + lead compound.
Data set [8] relates to Candida krusei Strain M13C4. The data set is described as follows: Killing of Candida krusei by fluconazole combinations (CFU/ml after 24 hours). It is filed as cell-based. The following applies: for CFU/ml after 24 hours incubation: inoculated at 6000 CFU/ml; for effect in combination with fluconazole on C. kruzei: fluconazole at concentration exceeding its MIC; for effect of compound alone on C. kruzei: not shown.

Data set [9] concerns sterol composition of C. Albicans. In words: TLC analysis of sterols of C. albicans. Format: cell-based, Candida albicans. The following applies: 24 hours.
In data set [10] the test system is Candida krusei Strain M13C4. The following applies: cited from earlier work.
Another data set concerns C. albicans isolates. The following applies: cited from earlier work.
For data set [11], the system named is C. albicans. The data set is described as follows: Growth of C. albicans in liquid culture with compound alone (without fluconazole). It is filed as cell-based, Candida albicans.
A short description of a further data set: Solubility limit. Format: physicochemical. The note with it: liquid culture of C. albicans.
[12] abbreviates: compound at 10 μg/ml, inoculum 7600 CFU/ml.
Setting [13] is: disk soaked in fluconazole 1 mg/ml or compound 2.5 mg/ml in DMSO.
Where [14] appears, read: fluconazole 128 μg/ml + compound 20 μg/ml.
The mark [15] stands for this setting: compound at 5 μg/ml, inoculum 8000 CFU/ml.

Converted amounts (≈) assume the structure as drawn. Where two headings read alike, the source gives them in different places. Marks after values point to notes of the source that are not given here. Bounds are passed on as bounds.

For orientation: solubility means the concentration that dissolves in the medium under given conditions. A lower solubility goes with little dissolved substance.

As for `Clc1ccccc1C(c1ccccc1)(c1ccccc1)n1ccnc1` [Clotrimazole], in data set [1] (in vivo), the “absorption after application to the skin” value was “less than 0.5%” and the “absorption from the vagina” value is listed as 3-10%.

With `OCC(O)Cn1c2ccc(Br)cc2c2cc(Br)ccc21` (stereo not shown) [Compound S243213], in [2] (setting [12]), the “fold reduction of the concentration of live cells, + Fluconazole, 16 μg/ml” value (“fold reduction of the concentration … 16 μg/ml” below) is on record as 6.9 fold; the “fold reduction of the concentration of live cells, + Itraconazole, 0.5 μg/ml” value came to 6.3 fold; the “fold reduction of the concentration of live cells, + Ketaconazole, 0.5 μg/ml” value is listed as 7.8 fold. Moreover, the “activity (concentration synergizing with fluconazole to a fungicidal effect)” value in the data set with C. albicans [3] was 0.6 µg/mL.

In the case of `OC(CN1CCC(/C=C/C2=CC=CCC2)CC1)Cn1c2ccccc2c2ccccc21` (stereo not shown) [DV 236683], the “activity (concentration synergizing with fluconazole to a fungicidal effect)” value with C. albicans [3] stood at 5 µg/mL.

As to `OC(CN1CCC(/C=C/C2=CC=CCC2)CC1)Cn1c2ccc(Cl)cc2c2cc(Cl)ccc21` (stereo not shown) [DV 236687], the “activity (concentration synergizing with fluconazole to a fungicidal effect)” value in the data set with C. albicans [3] was 10 µg/mL.

Regarding `OCC(O)Cn1c2ccc(Cl)cc2c2cc(Cl)ccc21` (stereo not shown) [DV 236818], the “activity (concentration synergizing with fluconazole to a fungicidal effect)” value in the data set on C. albicans [3] stood at 5 µg/mL.

Turning to `Clc1ccc(COC(Cn2ccnc2)c2ccc(Cl)cc2Cl)cc1` (stereo not shown) [Econazole], in data set [1] (in vivo), the “fraction absorbed into the blood” value is “Less than 1%”.

For the compound `OC(Cn1cncn1)(Cn1cncn1)c1ccc(F)cc1F` [Fluconazole, reference compound], the MIC80 in [4] (read-out: MIC80 of fluconazole in sensitive isolates) is 0.5 to 1 µg/mL (≈ 1.63 to 3.27 µM). Also, the MIC came to 8 µg/mL in data set [4] (read-out: MIC of fluconazole, isolate #4) and 64 µg/mL in data set [7] (Pichia kudriavzevii, STRAINM13C4, Fluconazole alone). In addition, in the data set with C. albicans [5], the “zone of inhibition, single agent” value was “pronounced zone of growth inhibition”. Besides, the “change in number of CFUs after 48 hours, fluconazole alone” value in the data set with C. albicans [6] (fluconazole 32 μg/ml, 48 hours) is reported as “four orders of magnitude”. The “effect of fluconazole alone on C. kruzei” value in [8] (128 μg/ml) is reported as “strongly fungistatic”. The “CFU/ml after 24 hours incubation” value in data set [8] (fluconazole 128 μg/ml alone) came out at 6230 CFU/ml. In addition, the “effect of fluconazole on ergosterol” value in data set [9] (increasing concentrations of fluconazole) is on record as “decrease in the amount of ergosterol”. The “MIC of fluconazole for C. kruzei (general range)” value in data set [10] is 8 to 128 µg/mL. Moreover, in the data set with C. albicans isolates (many isolates), the “MIC of fluconazole after 48 hours” value is “exceeds 64 μg/ml”. The “MIC of fluconazole after 24 hours of incubation” value with C. albicans isolates (most isolates) is under 4 µg/mL. In data set [1] (in vivo), the “absorption from the GI tract” value is listed as “almost completely absorbed”.

Turning to `O=C(O)CCn1c2ccc(Cl)cc2c2cc(Cl)ccc21` [INF 801], the “concentration affecting growth of C. albicans without fluconazole” value in the data set on C. albicans [11] is given as “exceeding 30 μg/ml”. Besides, in the data set on C. albicans [5], the “growth within zones after a week of incubation, combination with fluconazole” value is “no growth” and the “zone of inhibition, combination with fluconazole” value is listed as “large zones of inhibition lacking any growth”. Moreover, the “zone of inhibition, single agent” value in the data set with C. albicans [5] (setting [13]) was “narrow zones of inhibition”. In the data set with C. albicans [6], the “effect on growth of the yeast, compound alone” value is reported as “very little effect on the growth of the yeast”; the “colonies from plating of a milliliter of culture” value is “no colonies”; the “drop in number of live cells after 24 hours, combination with fluconazole” value is “two orders of magnitude”. The “drop in number of live cells after 48 hours, combination with fluconazole” value with C. albicans [6] (48 hours) is listed as “more than three orders of magnitude”. Also, the MIC of fluconazole in [7] turned out to be 16 µg/mL. Besides, in [8], the “effect in combination with fluconazole on C. kruzei” value is “strongly fungicidal” and the “effect of compound alone on C. kruzei” value is “harmless”. In data set [8] (setting [14]), the “CFU/ml after 24 hours incubation” value is on record as 20 CFU/ml. In data set [2] (setting [12]), the “fold reduction of the concentration … 16 μg/ml” value is listed as 48* fold; the “fold reduction of the concentration of live cells, + Itraconazole, 0.5 μg/ml” value came to 30 fold; the “fold reduction of the concentration of live cells, + Ketaconazole, 0.5 μg/ml” value is on record as 28 fold. The “concentration at which fungicidal activity is observed” value with C. albicans [3] was found to be 1.25 µg/mL. The “sterol pattern with fluconazole in the presence of INF 801” value in [9] (differing concentrations of fluconazole) was “substituting sterols accumulate in much smaller amounts than in the control”.

As for `O=C(O)C12c3ccccc3C(c3ccccc31)c1ccccc12` [INF 802], the “concentration affecting growth of C. albicans without fluconazole” value in the data set on C. albicans [11] is over 80 µg/mL. For the same compound, in the data set on C. albicans [5], the “growth within zones after a week of incubation, combination with fluconazole” value is given as “no growth” and the “zone of inhibition, combination with fluconazole” value is “large zones of inhibition lacking any growth”. The “zone of inhibition, single agent” value in the data set on C. albicans [5] (setting [13]) is “narrow zones of inhibition”. Further, in the data set with C. albicans [6], the “effect on growth of the yeast, compound alone” value is given as “very little effect on the growth of the yeast”; the “colonies from plating of a milliliter of culture” value is on record as “no colonies”; the “drop in number of live cells after 24 hours, combination with fluconazole” value was “two orders of magnitude”. For the same compound, the “drop in number of live cells after 48 hours, combination with fluconazole” value with C. albicans [6] (48 hours) is recorded as “more than three orders of magnitude”. The MIC of fluconazole in [7] was 32 µg/mL. In addition, in [8], the “effect in combination with fluconazole on C. kruzei” value is “strongly fungicidal” and the “effect of compound alone on C. kruzei” value is reported as “harmless”. Also, in [8] (setting [14]), the “CFU/ml after 24 hours incubation” value was found to be 20 CFU/ml. In data set [2] (setting [15]), the “fold reduction of the concentration … 16 μg/ml” value amounted to 5.5 fold; the “fold reduction of the concentration of live cells, + Itraconazole, 1 μg/ml” value is listed as 5.0 fold; the “fold reduction of the concentration of live cells, + Ketaconazole, 1 μg/ml” value came out at 6.0 fold. Besides, in the data set on C. albicans [3], the “concentration at which fungicidal activity is observed” value amounted to 2.5 µg/mL. In addition, the concentration in solution in the data set “Solubility limit” (solubility) was 80 µg/mL (≈ 268 µM).

For `CCC(C)n1ncn(-c2ccc(N3CCN(c4ccc(OCC5COC(Cn6cncn6)(c6ccc(Cl)cc6Cl)O5)cc4)CC3)cc2)c1=O` (stereo not shown) [Itraconazole], the “absorption in the fasting state relative to drug taken with food” value in data set [1] (in vivo, po) is given as 30%.

In the case of `CC(=O)N1CCN(c2ccc(OCC3COC(Cn4ccnc4)(c4ccc(Cl)cc4Cl)O3)cc2)CC1` (stereo not shown) [Ketoconazole], the peak plasma concentrations in data set [1] (oral doses 200-800 mg) was 4 to 20 µg/mL.

Take `O=CC12c3ccccc3C(c3ccccc31)c1ccccc12` [S 060128]: in [2] (setting [15]), the “fold reduction of the concentration … 16 μg/ml” value is listed as 36 fold; the “fold reduction of the concentration of live cells, + Itraconazole, 1 μg/ml” value is 69 fold; the “fold reduction of the concentration of live cells, + Ketaconazole, 1 μg/ml” value worked out at 380 fold.
